From US12303498B2, “ALK5 inhibitors as skeletal muscle hypertrophy inducers” (CYTOO, priority 2018, dated 2025) come the findings set out here.

The test system of experiment [1] is Myotubes from Donors 5 and A. An excerpt: Cells were washed with calcium buffer containing (in mM): 130 NaCl, 5.4 KCl, 1.8 CaCl2, 0.8 MgCl2, 5.6 D-glucose, 10 Hepes, pH 7.4. […] After washing to remove unloaded dye, myotube responses to electrical stimulation pulses were monitored using the FDSS/μCELL/EFS from Hamamatsu Photonics. Twitch stimulations were run at 0.2 Hz with pulse width 50 ms 5V for 60 seconds. Tetanus stimulation was run at 30 Hz with pulse width 15 ms 3V for 20 seconds. The Fluo-4 total fluorescence intensity is measured in each well. For data presentation, fluorescence intensities (F) were normalized to the mean intensity of the first timepoints (F/F0).

The subject of experiment [2] is Myotubes from the healthy donor 3 atrophied by TNF-α, IL-1β, Myostatin, TGF-β or dexamethasone. Put plainly: Atrophy rescue assay (MyoScreen). It is filed as cell-based, human. Set-up: key: +++: total rescue; ++: partial rescue; +: low rescue. The procedure:
Hypertrophy and Atrophy Rescue assays were performed using an in vitro fully automated human myotube model called MyoScreen™ (Cytoo, France). This model relies on a tight control of the microenvironment that guides the differentiation of human primary myoblasts. Myotubes formed on MyoScreen™ micropatterns present a high level of maturation together with a highly standardized morphology.
Human primary myoblasts from donors were seeded in MyoScreen™ micropatterned 96-well plates (Cytoo, France), let them adhere for 24 h in growth medium, then run the differentiation in a low horse serum medium for at least 5 days.
At Day 0, MyoScreen™ plates (Cytoo, France) containing micropatterns were pre-filled with 200 μl/well of growth medium and stored in the incubator at 37° C. Human primary myoblasts were detached from the flasks, count, and seeded into the plates with 15 000 cells per well in 100 μl of growth medium.
At Day 1, the growth medium was changed for a differentiation medium, 300 μl/well (DMEM with 0.1% horse serum) in which myoblasts started differentiating and forming myotubes.
At Day 2, the differentiation medium was changed. Then candidate compounds were diluted with differentiation medium and transferred into the plate. The final concentration of DMSO should be not higher than 0.1%. At least 6 wells were treated with the vehicle as a basal control, and 6 wells were treated with IGF-1 at 100 ng/ml as positive hypertrophy control.
For Atrophy Rescue assay, one hour after candidate compound addition, atrophy inducers were added at the following final concentration: 150 ng/mL of myostatin, 25 ng/mL of IL-1β, 2 ng/mL of TNF-α, 0.5 ng/mL of TGF-β and 100 μM of dexamethasone.
At Day 6, cells were fixed with formalin 5% for 30 min at room temperature, then permeabilized with Triton X-100 at 0.1% in PBS for 15 min, and blocked with PBS+BSA 1% for 20 minutes. Myotubes were incubated with first antibody against Troponin T in blocking buffer for 1 h30, washed three times with PBS, incubated with secondary antibody and Hoescht ( 1/10000) for 1 h30, and washed three times with PBS.
Images were acquired at 10× magnification with an Operetta High Content Imaging System. Image processing and analysis were performed with dedicated algorithms developed on the Acapella High Content Imaging Software (Perkin Elmer) by CYTOO. Eleven fields per well were acquired.
First, segmentation of myotubes and nuclei were done using respectively the Troponin T staining intensity and the Hoechst staining. One to two myotubes per micropattern were usually identified (a myotube is a troponin T staining area that includes at least 2 nuclei). The threshold of segmentation was set-up in order to avoid detecting the background noise and eliminate aberrant small myotube structures. At the end of this first step, specific readouts were calculated in the whole well, like the nuclei count and the fusion index (percentage of nuclei included in troponin T staining) Usually around 50 to 60 myotubes were detected per well in a control condition.
Then, an image clean-up step was performed on the Troponin T images in order to remove myotubes that touch the border of the image. The final valid myotubes were used to extract myotube morphology parameters including the myotube width and area, and the number of nuclei per myotube.
Atrophy Rescue assays were performed in triplicate in the presence of atrophy inducers, i.e. TNF-α, IL-1β, Myostatin, TGF-β and dexamethasone.
Atrophy rescue assays was performed for RepSox. Myotubes from the healthy donor 3 were atrophied using different inducers: TNF-α, IL-1β, Myostatin, TGF-β and dexamethasone.

Turning to `Cc1cccc(-c2n[nH]cc2-c2ccc3ncccc3n2)n1` [RepSox], the tetanus response entry in experiment [1] (Donor 5 myotubes, RepSox 3 to 500 nM, tetanus stimulation 30 Hz, vs Control myotubes) was “increases with RepSox concentrations”. The “calcium peak amplitude on repeated twitch electrical stimulations” value in experiment [1] (Donor A and Donor 5 myotubes, RepSox 300 nM for 5 days, twitch 0.2 Hz) was “twice higher”. Besides, the “atrophy rescue, IL-1” value in experiment [2] (atrophy inducer IL-1β 25 ng/mL) is reported as “++”. Also, in experiment [2] (atrophy inducer TGF-β 0.5 ng/mL), the “atrophy rescue, TGF-β” value is reported as “+++”. Also, in experiment [2] (atrophy inducer TNF-α 2 ng/mL), the “atrophy rescue, TNF-alpha” value was “++”. Further, the “atrophy rescue, dexamethasone” value in experiment [2] (atrophy inducer dexamethasone 100 μM) is “+++”. In experiment [2] (atrophy inducer myostatin 150 ng/mL), the “atrophy rescue, Myostatin” value was “+++”.
